{"source": "patent US4551453A", "about": "“2-(ω-Alkylaminoalkyl)- and 2-(ω-dialkylaminoalkyl-3-(4-X-benzylidene)-phthalimidines” (Laboratori Baldacci SpA, priority 1982, dated 1985)", "key": {"[1]": {"tested_on": "sciatic nerve of edible frog", "assay": "Test on the sciatic nerve of frog (inhibition of action potential)", "conditions": "for times more powerful than procaine: sciatic nerve of frog, vs procaine; for times more active than lidocaine: deduced from frog sciatic nerve comparison with procaine and literature lidocaine/procaine ratio", "procedure": "There was assessed the concentration of the tested substances (AL 12, AL 12 B and AL 5) capable of inhibiting or reducing the action potential of the sciatic nerve of edible frog after removal of a lenght of perinerium.\nThe stimulating device was sending maximum pulses of 0.1 msec of duration.\nThe reductions of the action potential after application of the substances were indicated as percentages of the initial action potential.\nThe comparison substance was procaine at the following concentrations: 0.4-0.6 and 0.8M"}, "Wistar rats": {"tested_on": "Wistar rats", "assay": "Subacute toxicity, 15 days intramuscular", "conditions": "10 mg/kg AL 12 or lidocaine at equivalent molecular dose", "procedure": "It was tested in two stocks of Wistar rats, in three groups each comprising 20 animals, (10 male and 10 female).\nThe injections were carried out by intramuscolar route in a point of the thigh for 15 days."}, "[2]": {"tested_on": "sciatic nerve of edible frog", "conditions": "as unanimously stated in the literature; cited from earlier work"}, "[3]": {"assay": "60 day intramuscular toxicological study", "type": "in vivo, rats", "conditions": "rat, in vivo, im; rats, i.m., 60 days; read-out: dosage of first toxic alterations relative to single dose useful in the human being", "procedure": "(§1) In order to shown the potential toxicity of the compound AL 12 B a toxicological study was programmed which either for the duration of the administration period (60 days), and for the route of introduction in the organism (intramuscular) and for the variety of used dosages (5-10-20 mg/kg) was surely suitable to indicate the possible toxicity of the substance.\n(§2) It is pointed out that the lowest dose used in the test is already about 5 to 10 times higher than the single therapeutical dose, possibly used by infiltration in the human being. Male and female rats, having respectively a body weight of about 90 and 65 g, were divided in groups of 6-9 animals of the same sex and stalled in 2 to 3 animals per cage with water and food ad libitum.\n(§3) The environment conditions were maintained constant at 24° C., moisture at night-day cycle.\n(§4) The drug in apirogenic sterile solution was daily injected by intramuscolar route. At the end of the treatment the animals were anesthetized for the blood removal for the hematochemical and hematological examinations. The animals were than sacrificed and the weight of the single fresh organs was carefuly recorded. The hematochemical parameters which were taken into consideration were the following: glycemia, uricemia, alkaline phosphatase (ALP) malate dehydrogenase (MDH), acetylcholinesterase (CHE), SGPT, SGOT, L-y-glutamyltransferase (Y.G.T.), ornitincarbonyltransferase (O.C.T.), triocylglycerolacylhydrolase (Lipase), isocitratedehydrogenase (ICDH), sorbitole dehydrogenase (SDH), hydroxybutyrate dehydrogenase (HCDH), lactic dehydrogenase (LDHP), […] arylamidase (LAP), sodiemia, potassiemia, chloridemia, magnesiemia, calcemia, total tryglicerides, albumins, globulins, A/G total proteins, total cholesterole, amylasemia, creatininemia. Some hematological parameters were furthermore measured: red corpuscles, platelets, white corpusles, leucocitary form, hemoglobine.\n(§5) The urinary parameters taken into consideration were, besides the 24 hour volume, azotemia, creatininuria, amylasuria, uricuria, calciuria, chlorides, sodium and potassium.\n(§6) For the statistical evaluations of the weight of the fresh organs the analysis of the covariations was effected in order to eliminate the possible influences of the body weight onto the organ weight.\n(§7) The hematological and hematochemical parameters were statistically balanced by means of the variancy analysis by taking into consideration all the gropus and the Student \"t\" amongst the single treated groups and the control group.\n(§8) The homogeneity of the leucocitary form was investigated by the .chi.^2 test."}, "Male and female rats": {"tested_on": "Male and female rats", "assay": "60 day intramuscular toxicological study", "type": "in vivo", "conditions": "60 days", "procedure": "as §1, §2, §3, §4, §5, §6, §7, §8"}, "vagal nerve of chicken": {"tested_on": "vagal nerve of chicken", "assay": "Test of inhibition of the action potential of the vagal nerve of chicken", "conditions": "for effects vs tetracaine: same molar concentrations as tetracaine; for pIC50: parameter (b), stimulations higher than the maximum, read-out: ED 50, inhibition of the width of the action potential", "text": "For these tests two investigation parameters were selected:\n(a) increase of the stimulating threshold necessary to induce the appearance of the action potential;\n(b) inhibition of the potential width as induced by the supra maximum stimulation. AL 12 and AL 12 B were compared with the tetracaine."}, "[4]": {"assay": "Lethality and toxicity for single dose (rat)", "conditions": "in vivo, ip", "text": "Lethality and toxicity for single dose"}, "Salmonella Typhymurium": {"tested_on": "Salmonella Typhymurium", "assay": "Ames test", "type": "cell-based", "conditions": "up to the concentration of 5 ml (so in the source)", "procedure": "(§9) The compound AL 12 was subjected to the tests of genic mutation. All the tests used for such experiments were carried out and precisely:\n(a) Ames test using as the substrate a protocariote organism as Salmonella Typhymurium;"}, "[5]": {"tested_on": "Schizosaccharomyces Pombe", "assay": "Test of genic mutation (forwardly)", "type": "cell-based", "conditions": "up to the concentration of 5 ml (so in the source)", "procedure": "as §9\n(b) Test of genic mutation (forwardly) of Schizosaccharomyces Pombe, permitting the evaluation of every mutagenic event capable of varying the functionality of every 5 genes involved in the synthesis of adenine;"}, "[6]": {"tested_on": "cellular line Hela of human fibroplasts", "assay": "DNA recovery test (non programmed synthesis of recovery DNA)", "type": "cell-based", "conditions": "up to the concentration of 5 ml (so in the source)", "procedure": "as §9\n(c) DNA recovery test, i.e. test of the non programmed synthesis of recovery DNA on the cellular line Hela of human fibroplasts."}, "rabbit cornea": {"tested_on": "rabbit cornea", "assay": "Test of the rabbit cornea", "type": "in vivo", "text": "There were used amounts of AL 12 of 0.25-0.50-1.0% in comparison with amounts of 1% and 2% of xylocaine."}, "[7]": {"assay": "Pharmacodynamic tests (overall local anesthetic activity comparison)", "conditions": "AL 12 vs lidocaine, as it appears from the pharmacodynamic tests", "procedure": "As regards the pharmacodynamic tests, they were carried out on the following compounds:\nThe local anesthetic power of these compounds was tested in comparison with procaine, xylocaine and tetracaine."}, "mice": {"tested_on": "mice", "conditions": "i.v. route"}, "in vivo": {"assay": "in vivo", "conditions": "mouse"}}, "note": "pIC50: −log10 of the molar value. Where a name gives a salt, the structure may show the parent alone.", "data": [{"smiles": "CN(C)CCCN1C(=O)c2ccccc2C1=Cc1ccccc1", "note": "[AL 5, 3-benzylidene-2-(γ-dimethylaminopropyl)-phthalimidine hydrochloride]", "values": [{"measurement": "times more powerful than procaine", "setting": "[1]", "result": "about 5 times"}]}, {"smiles": "CCN(CC)CC(=O)Nc1c(C)cccc1C", "note": "[lidocaine]", "values": [{"measurement": "food consumption and diuresis", "setting": "Wistar rats; all along the treatment period", "result": "normal"}, {"measurement": "all the other functions", "setting": "Wistar rats; intramuscular, 15 days", "result": "remained unchanged"}, {"measurement": "autoptic examination", "setting": "Wistar rats; intramuscular, 15 days", "result": "Nothing out of the rule was observed"}, {"measurement": "loss of functionality of the injected leg, duration", "setting": "Wistar rats; intramuscular, 15 days", "result": "about one"}, {"measurement": "weight of the organs vs control animals", "setting": "Wistar rats; intramuscular, 15 days", "result": "did not differ from that of the control animals"}, {"measurement": "local anesthetic activity, times higher than procaine", "setting": "[2]", "result": "about 2.2 times"}]}, {"smiles": "CCN(CC)CCN1C(=O)c2ccccc2C1=Cc1ccc(OC(C)=O)cc1", "note": "[AL 12B, 3-(4-acetoxybenzylidne)-2-(β diethylaminoethyl)-phthalimidine hydrochloride]", "values": [{"measurement": "selectivity ratio at 1440 h", "setting": "[3]", "result": 10}, {"measurement": "all the investigated parameters", "setting": "Male and female rats; 5 mg/kg i.m.", "result": "none appeared to be modified"}, {"measurement": "HBDG", "setting": "Male and female rats; female, 10 mg/kg i.m.", "result": "increase"}, {"measurement": "LDH-P", "setting": "Male and female rats; female, 10 mg/kg i.m.", "result": "increase"}, {"measurement": "globulins", "setting": "Male and female rats; female, 10 mg/kg i.m.", "result": "increase"}, {"measurement": "urinary parameters, females", "setting": "Male and female rats; female, 10 mg/kg i.m.", "result": "no alteration might be appreciated"}, {"measurement": "alterations in female animals", "setting": "Male and female rats; female, 20 mg/kg i.m.", "result": "no alteriation might be appreciated"}, {"measurement": "body weight growth vs control", "setting": "Male and female rats; male and female rats, 5-10-20 mg/kg i.m.", "result": "comparable with that of the control animals"}, {"measurement": "hematological parameters", "setting": "Male and female rats; male and female, 10 mg/kg i.m.", "result": "None of the hematological parameters was modified"}, {"measurement": "body weight growth, males at higher dosages (not statistically significant)", "setting": "Male and female rats; male rats, 10-20 mg/kg i.m.", "result": "tendentially reduced"}, {"measurement": "albumins", "setting": "Male and female rats; male, 10 mg/kg i.m.", "result": "reduction"}, {"measurement": "amylasuria", "setting": "Male and female rats; male, 10 mg/kg i.m.", "result": "reduced"}, {"measurement": "glycemia", "setting": "Male and female rats; male, 10 mg/kg i.m.", "result": "reduction"}, {"measurement": "spleen weight, males", "setting": "Male and female rats; male, 10 mg/kg i.m.", "result": "slight increase"}, {"measurement": "urinary chloride", "setting": "Male and female rats; male, 10 mg/kg i.m.", "result": "reduced"}, {"measurement": "weight of the spleen", "setting": "Male and female rats; male, 20 mg/kg i.m.", "result": "increased"}, {"measurement": "weight of the suprarenal glands", "setting": "Male and female rats; male, 20 mg/kg i.m.", "result": "increased"}, {"measurement": "ALP (alkaline phosphatase)", "setting": "Male and female rats; male, found also in female, 10 mg/kg i.m.", "result": "slight increase"}, {"measurement": "dose-dependence of the observed modifications", "setting": "Male and female rats; rats, 5-10-20 mg/kg i.m.", "result": "none of the observed modifications, was shown to be dose-dependent"}, {"measurement": "overall toxicity", "setting": "Male and female rats; rats, 5-10-20 mg/kg i.m.", "result": "not particularly toxic"}, {"measurement": "times more active than lidocaine", "setting": "[1]", "result": "about 4 times"}, {"measurement": "pIC50", "setting": "[1]; sciatic nerve of edible frog, read-out: ED50 (reduction of action potential)", "result": 1.10}, {"measurement": "times more powerful than procaine", "setting": "[1]", "result": "at least 8.5 times"}, {"measurement": "effects vs tetracaine", "setting": "vagal nerve of chicken", "result": "almost perfectly superimposable to those of tetracaine"}]}, {"smiles": "CCN(CC)CCN1C(=O)c2ccccc2C1=Cc1ccc(OC)cc1", "note": "[AL 12, 3-(4-methoxybenzylidene)-2-(β-diethylaminoetyl)phthalimidine hydrochloride]", "values": [{"measurement": "LD50", "setting": "[4]", "result": 52.5, "unit": "mg/kg"}, {"measurement": "induction of mutations, Ames test", "setting": "Salmonella Typhymurium", "result": "unable to induce mutations"}, {"measurement": "induction of mutations, genic mutation (forwardly)", "setting": "[5]", "result": "unable to induce mutations"}, {"measurement": "induction of mutations, DNA recovery test", "setting": "[6]", "result": "unable to induce mutations"}, {"measurement": "duration of complete anesthesy", "setting": "rabbit cornea; 0.25% AL 12", "result": 30, "unit": "min"}, {"measurement": "duration of complete anesthesy vs xylocaine at a 4 times higher concentration", "setting": "rabbit cornea; 0.25% AL 12 vs 4 times higher xylocaine", "result": "slightly lower"}, {"measurement": "duration of the complete anesthesy", "setting": "rabbit cornea; 0.50% AL 12", "result": "more than 90 minutes"}, {"measurement": "anesthetic power vs xylocaine at a 4 times higher dose", "setting": "rabbit cornea; 0.50% AL 12 vs 2% xylocaine", "result": "higher"}, {"measurement": "times more active than lidocaine", "setting": "[1]", "result": "5-6 times"}, {"measurement": "times more powerful than procaine", "setting": "[1]", "result": "about 11.5 times"}, {"measurement": "pIC50", "setting": "vagal nerve of chicken", "result": 8.10}, {"measurement": "effects vs tetracaine", "setting": "vagal nerve of chicken", "result": "almost perfectly superimposable to those of tetracaine"}, {"measurement": "local anesthetic activity: lidocaine is about n times less active than AL 12", "setting": "[7]", "result": "about 4 times"}, {"measurement": "acute toxicity, times higher in comparison with lidocaine", "setting": "mice", "result": "about 2.4 (2.37) times"}, {"measurement": "LD50", "setting": "in vivo; im", "result": 32.5, "unit": "mg/kg"}, {"measurement": "LD50", "setting": "in vivo; iv", "result": 13.5, "unit": "mg/kg"}]}, {"smiles": "CCCCNc1ccc(C(=O)OCCN(C)C)cc1", "note": "[tetracaine, reference compound]", "values": [{"measurement": "pIC50", "setting": "vagal nerve of chicken", "result": 8.10}]}, {"smiles": "CCN(CC)CC(=O)Nc1c(C)cccc1C", "note": "[xylocaine, reference compound]", "values": [{"measurement": "duration of the complete anesthesy", "setting": "rabbit cornea; 2% xylocaine", "result": 60, "unit": "min"}]}]}
